In ChEMBL document CHEMBL5653615 (J Biol Chem, 2013) one finds inhibition data, which are given here for 2 compounds.

Test [1] has as its target CDK6/cyclin D3 (Homo sapiens) (UniProt P30281+Q00534). The test is described as follows: Inhibition of human CDK6/cyclin D3 at 500 nM by HotSpot assay relative to control. In kind it is protein-complex assay.
The target of test [2] is T1, Beta-adrenergic receptor kinase 1 (Homo sapiens) (UniProt P25098).
T1 sequence (whole entry): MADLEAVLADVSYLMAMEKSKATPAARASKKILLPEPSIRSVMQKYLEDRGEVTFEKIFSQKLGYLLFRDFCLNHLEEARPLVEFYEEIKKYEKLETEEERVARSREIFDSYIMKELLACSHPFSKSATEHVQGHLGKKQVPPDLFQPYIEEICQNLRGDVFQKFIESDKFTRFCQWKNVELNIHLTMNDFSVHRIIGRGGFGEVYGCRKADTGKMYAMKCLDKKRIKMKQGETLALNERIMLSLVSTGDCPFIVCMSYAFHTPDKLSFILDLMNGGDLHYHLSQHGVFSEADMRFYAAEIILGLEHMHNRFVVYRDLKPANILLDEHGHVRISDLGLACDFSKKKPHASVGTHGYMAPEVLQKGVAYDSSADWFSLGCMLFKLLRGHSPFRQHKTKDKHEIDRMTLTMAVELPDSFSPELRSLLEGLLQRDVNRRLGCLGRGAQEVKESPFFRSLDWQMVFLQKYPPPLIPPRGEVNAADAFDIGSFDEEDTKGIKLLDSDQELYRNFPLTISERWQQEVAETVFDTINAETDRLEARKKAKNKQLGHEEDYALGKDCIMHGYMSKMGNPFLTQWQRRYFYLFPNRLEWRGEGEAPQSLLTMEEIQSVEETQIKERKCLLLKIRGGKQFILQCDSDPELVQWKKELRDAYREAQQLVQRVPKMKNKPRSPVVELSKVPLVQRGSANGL
The test is described as follows: Inhibition of human GRK2 at 500 nM by HotSpot assay relative to control.

Test [3] has as its target Mitogen-activated protein kinase kinase kinase kinase 4 (Homo sapiens) (UniProt O95819). The test is described as follows: Inhibition of human HGK at 500 nM by HotSpot assay relative to control.
In test [4] the target is Mitogen-activated protein kinase kinase kinase kinase 5 (Homo sapiens) (UniProt Q9Y4K4). The test is described as follows: Inhibition of human KHS at 500 nM by HotSpot assay relative to control.
Mitogen-activated protein kinase kinase kinase kinase 5 (Homo sapiens), sequence (Q9Y4K4 whole entry, looked up): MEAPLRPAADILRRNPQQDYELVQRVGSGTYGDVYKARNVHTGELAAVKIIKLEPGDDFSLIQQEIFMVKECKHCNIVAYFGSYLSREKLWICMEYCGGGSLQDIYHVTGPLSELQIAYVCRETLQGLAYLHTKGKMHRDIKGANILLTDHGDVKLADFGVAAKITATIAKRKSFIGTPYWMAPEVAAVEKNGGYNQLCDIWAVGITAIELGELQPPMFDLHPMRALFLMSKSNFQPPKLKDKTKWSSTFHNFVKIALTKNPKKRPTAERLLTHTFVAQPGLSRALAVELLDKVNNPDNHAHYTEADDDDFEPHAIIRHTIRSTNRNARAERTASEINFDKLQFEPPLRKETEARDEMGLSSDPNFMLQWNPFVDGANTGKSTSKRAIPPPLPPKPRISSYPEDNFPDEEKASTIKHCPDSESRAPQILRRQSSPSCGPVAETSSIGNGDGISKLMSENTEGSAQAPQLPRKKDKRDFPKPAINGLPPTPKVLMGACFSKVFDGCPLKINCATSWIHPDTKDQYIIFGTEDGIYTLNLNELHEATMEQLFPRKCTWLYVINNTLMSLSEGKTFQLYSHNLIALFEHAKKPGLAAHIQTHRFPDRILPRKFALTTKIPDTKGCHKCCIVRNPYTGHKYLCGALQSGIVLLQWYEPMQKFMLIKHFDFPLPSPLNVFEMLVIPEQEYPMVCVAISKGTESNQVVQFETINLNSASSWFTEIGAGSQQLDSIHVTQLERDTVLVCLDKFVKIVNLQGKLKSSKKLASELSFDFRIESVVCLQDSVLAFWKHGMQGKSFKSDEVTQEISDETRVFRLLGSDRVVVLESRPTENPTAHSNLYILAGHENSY
In test [5] the target is Mitogen-activated protein kinase kinase kinase 9 (Homo sapiens) (UniProt P80192). The test is described as follows: Inhibition of human MAP3K9 at 500 nM by HotSpot assay relative to control.
Mitogen-activated protein kinase kinase kinase 9 (Homo sapiens), sequence (P80192 whole entry, looked up): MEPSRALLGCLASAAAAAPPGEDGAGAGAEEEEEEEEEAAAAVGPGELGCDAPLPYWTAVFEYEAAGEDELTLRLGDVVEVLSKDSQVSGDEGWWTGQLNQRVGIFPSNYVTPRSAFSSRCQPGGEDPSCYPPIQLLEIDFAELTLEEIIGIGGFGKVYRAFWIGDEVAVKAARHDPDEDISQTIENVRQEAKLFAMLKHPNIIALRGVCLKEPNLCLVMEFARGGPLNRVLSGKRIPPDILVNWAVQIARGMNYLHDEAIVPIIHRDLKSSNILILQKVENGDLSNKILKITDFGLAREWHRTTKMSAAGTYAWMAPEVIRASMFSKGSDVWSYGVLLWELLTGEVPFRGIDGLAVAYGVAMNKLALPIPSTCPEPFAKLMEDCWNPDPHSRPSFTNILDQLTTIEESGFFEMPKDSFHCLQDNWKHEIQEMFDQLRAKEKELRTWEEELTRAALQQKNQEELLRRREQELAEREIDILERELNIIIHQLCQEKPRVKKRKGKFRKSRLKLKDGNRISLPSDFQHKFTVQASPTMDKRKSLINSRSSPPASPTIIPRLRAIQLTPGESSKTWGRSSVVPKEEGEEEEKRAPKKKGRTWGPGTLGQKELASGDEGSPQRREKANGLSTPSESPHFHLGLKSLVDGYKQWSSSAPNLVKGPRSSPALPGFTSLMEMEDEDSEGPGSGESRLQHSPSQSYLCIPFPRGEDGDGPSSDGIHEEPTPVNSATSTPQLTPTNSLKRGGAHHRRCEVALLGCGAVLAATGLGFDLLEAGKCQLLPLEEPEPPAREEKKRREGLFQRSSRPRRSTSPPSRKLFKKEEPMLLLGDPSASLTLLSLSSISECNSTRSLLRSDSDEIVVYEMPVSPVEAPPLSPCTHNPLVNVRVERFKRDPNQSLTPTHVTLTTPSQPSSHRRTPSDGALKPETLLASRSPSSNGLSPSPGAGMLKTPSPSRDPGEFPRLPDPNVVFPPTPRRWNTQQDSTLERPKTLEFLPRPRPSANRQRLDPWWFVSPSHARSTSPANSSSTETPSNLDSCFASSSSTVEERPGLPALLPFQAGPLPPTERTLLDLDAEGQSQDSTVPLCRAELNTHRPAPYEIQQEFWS
Test [6] deals with T2, Serine/threonine-protein kinase Nek9 (Homo sapiens) (UniProt Q8TD19).
T2 sequence (whole entry): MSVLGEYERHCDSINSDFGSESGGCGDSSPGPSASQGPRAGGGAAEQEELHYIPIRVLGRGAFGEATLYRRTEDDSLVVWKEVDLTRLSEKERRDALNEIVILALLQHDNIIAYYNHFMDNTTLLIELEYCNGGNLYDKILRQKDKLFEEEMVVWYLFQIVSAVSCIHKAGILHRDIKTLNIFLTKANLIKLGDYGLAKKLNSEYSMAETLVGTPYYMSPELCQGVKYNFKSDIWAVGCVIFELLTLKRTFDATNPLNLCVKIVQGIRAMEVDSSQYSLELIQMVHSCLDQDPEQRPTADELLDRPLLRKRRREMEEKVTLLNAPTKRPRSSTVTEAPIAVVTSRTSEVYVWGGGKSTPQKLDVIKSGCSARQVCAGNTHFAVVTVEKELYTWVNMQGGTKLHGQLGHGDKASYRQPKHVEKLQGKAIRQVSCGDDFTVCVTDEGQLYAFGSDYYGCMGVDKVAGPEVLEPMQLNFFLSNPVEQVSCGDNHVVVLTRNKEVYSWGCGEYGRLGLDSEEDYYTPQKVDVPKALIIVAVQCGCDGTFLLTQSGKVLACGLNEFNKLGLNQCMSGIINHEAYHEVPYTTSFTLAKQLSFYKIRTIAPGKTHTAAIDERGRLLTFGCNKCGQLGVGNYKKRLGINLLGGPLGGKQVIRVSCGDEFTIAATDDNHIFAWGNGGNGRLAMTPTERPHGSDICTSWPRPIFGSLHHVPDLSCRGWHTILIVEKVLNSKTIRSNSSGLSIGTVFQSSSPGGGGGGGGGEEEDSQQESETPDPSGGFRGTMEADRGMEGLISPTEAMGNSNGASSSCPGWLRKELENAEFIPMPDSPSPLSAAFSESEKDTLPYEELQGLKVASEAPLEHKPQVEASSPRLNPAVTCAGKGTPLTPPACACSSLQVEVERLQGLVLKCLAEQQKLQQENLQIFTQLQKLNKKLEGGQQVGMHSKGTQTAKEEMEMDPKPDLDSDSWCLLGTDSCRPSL
The test is described as follows: Inhibition of human NEK9 at 500 nM by HotSpot assay relative to control.

The target in test [7] is Rho-associated protein kinase 1 (Homo sapiens) (UniProt Q13464). The test is described as follows: Inhibition of human ROCK1 at 500 nM by HotSpot assay relative to control.
Rho-associated protein kinase 1 (Homo sapiens), sequence (Q13464 2-1354 limits assumed): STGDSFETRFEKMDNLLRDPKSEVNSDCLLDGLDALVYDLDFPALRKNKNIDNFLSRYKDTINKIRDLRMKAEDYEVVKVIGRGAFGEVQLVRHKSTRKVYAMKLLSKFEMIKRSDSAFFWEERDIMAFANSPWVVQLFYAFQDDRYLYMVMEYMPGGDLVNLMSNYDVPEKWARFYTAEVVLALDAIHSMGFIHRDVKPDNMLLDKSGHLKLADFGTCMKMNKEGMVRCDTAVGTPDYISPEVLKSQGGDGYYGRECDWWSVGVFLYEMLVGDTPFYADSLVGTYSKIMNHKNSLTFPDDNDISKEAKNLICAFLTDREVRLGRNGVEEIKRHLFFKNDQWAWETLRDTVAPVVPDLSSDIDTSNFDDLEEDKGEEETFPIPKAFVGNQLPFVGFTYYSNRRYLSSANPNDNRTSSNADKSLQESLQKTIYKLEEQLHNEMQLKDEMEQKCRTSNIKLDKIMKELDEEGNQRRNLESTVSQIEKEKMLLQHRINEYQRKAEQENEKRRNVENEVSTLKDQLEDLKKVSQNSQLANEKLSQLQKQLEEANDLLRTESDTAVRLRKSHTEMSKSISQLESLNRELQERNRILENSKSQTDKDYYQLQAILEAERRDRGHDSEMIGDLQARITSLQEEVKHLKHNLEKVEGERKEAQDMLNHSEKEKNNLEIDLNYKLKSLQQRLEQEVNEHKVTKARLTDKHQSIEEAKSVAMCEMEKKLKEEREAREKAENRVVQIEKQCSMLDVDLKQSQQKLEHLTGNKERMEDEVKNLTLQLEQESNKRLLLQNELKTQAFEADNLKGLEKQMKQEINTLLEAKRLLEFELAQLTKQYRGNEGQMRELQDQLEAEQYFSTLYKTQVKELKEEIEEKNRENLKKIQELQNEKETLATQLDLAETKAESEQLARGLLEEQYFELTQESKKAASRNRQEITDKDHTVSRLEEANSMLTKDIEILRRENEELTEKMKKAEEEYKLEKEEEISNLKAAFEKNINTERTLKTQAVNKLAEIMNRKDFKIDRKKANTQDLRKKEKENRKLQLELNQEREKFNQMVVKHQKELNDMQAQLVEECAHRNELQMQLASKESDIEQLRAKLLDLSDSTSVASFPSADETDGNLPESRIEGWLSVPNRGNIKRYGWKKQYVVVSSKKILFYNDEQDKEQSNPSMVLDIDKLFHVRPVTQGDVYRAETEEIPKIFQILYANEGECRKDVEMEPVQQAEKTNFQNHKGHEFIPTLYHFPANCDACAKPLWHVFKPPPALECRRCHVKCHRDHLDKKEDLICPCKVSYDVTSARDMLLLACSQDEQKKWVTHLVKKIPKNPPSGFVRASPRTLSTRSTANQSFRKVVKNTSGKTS
In test [8] the target is T3, Serine/threonine-protein kinase TAO3 (Homo sapiens) (UniProt Q9H2K8).
T3 sequence (whole entry): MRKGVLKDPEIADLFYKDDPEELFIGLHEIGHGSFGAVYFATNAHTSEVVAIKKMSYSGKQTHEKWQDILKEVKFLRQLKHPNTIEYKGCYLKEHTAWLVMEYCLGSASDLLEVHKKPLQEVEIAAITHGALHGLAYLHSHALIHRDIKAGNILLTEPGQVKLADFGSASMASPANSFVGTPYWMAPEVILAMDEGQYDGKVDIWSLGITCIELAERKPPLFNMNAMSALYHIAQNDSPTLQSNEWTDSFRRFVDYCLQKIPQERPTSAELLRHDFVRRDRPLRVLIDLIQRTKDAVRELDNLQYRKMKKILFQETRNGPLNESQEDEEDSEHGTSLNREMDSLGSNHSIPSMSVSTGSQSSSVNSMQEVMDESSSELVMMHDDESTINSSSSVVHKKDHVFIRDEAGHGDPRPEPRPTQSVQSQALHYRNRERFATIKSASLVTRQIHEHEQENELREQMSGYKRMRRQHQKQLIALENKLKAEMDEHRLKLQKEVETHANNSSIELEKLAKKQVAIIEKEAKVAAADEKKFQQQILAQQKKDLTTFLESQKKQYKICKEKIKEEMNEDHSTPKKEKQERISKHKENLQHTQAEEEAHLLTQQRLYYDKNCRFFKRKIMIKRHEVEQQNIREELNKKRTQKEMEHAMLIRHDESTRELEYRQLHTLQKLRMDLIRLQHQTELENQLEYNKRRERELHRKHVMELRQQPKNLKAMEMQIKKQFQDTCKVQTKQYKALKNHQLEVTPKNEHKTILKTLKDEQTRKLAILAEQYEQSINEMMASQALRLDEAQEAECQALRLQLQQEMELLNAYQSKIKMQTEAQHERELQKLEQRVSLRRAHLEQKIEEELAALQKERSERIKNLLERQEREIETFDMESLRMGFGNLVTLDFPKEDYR
The test is described as follows: Inhibition of human JIK at 500 nM by HotSpot assay relative to control.

Test [9] concerns the target NT-3 growth factor receptor (Homo sapiens) (UniProt Q16288). The test is described as follows: Inhibition of human TRKC at 500 nM by HotSpot assay relative to control.

NT-3 growth factor receptor (Homo sapiens), sequence (Q16288 32-839 limits assumed): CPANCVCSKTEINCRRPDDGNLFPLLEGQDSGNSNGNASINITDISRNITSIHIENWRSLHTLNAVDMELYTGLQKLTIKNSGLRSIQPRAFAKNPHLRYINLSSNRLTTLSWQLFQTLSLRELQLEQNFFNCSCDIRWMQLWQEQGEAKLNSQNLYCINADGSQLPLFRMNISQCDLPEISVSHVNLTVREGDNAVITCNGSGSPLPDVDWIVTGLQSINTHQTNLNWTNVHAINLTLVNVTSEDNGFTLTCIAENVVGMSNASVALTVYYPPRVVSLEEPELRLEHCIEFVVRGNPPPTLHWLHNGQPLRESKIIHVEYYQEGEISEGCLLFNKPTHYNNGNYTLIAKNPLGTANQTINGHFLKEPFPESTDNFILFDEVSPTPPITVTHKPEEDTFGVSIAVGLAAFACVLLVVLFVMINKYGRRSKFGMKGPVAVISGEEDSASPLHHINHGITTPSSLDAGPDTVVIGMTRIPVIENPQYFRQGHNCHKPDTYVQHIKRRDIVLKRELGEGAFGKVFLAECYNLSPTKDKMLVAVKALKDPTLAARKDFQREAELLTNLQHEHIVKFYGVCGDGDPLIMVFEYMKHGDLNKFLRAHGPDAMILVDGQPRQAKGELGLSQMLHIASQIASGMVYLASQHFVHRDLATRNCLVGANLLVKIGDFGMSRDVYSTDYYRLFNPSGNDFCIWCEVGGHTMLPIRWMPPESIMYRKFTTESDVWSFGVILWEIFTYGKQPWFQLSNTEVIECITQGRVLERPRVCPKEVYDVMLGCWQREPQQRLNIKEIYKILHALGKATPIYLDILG

By inhibition is commonly meant the relative decrease from the control value, in per cent. Regarding `Oc1n[nH]c2nnc(-c3c(-c4ccccc4)nn4ccccc34)cc12`, the inhibition was 1.59% in test [1]; 5.01% in [2]; 0.95% in test [3]; 3.59% in test [4]; -2.83% in test [5]; 10.2% in [6]. Besides, the inhibition in test [7] came to 3.01%; in [8] it was 4.08%; in test [9], 2.25%.

`Nc1n[nH]c2nnc(-c3c(-c4ccccc4)nn4ccccc34)cc12`: the inhibition in test [1] was determined as 9.56%; in [2], 4.99%; in [3] it was 38%; in test [4], 49.7%; in [5], 0.07%; in test [6], 6.65%. For the same compound, the inhibition in [7] is -0.45%; in test [8] it was -1.15%; in test [9], 23.4%.
